This note sets out measurements from the kinase profiling compilation of Christmann-Franck et al. (2016).

Molecules are shown by their SMILES.

Chain of TLK2 (human) (Q86UE8 whole entry, looked up): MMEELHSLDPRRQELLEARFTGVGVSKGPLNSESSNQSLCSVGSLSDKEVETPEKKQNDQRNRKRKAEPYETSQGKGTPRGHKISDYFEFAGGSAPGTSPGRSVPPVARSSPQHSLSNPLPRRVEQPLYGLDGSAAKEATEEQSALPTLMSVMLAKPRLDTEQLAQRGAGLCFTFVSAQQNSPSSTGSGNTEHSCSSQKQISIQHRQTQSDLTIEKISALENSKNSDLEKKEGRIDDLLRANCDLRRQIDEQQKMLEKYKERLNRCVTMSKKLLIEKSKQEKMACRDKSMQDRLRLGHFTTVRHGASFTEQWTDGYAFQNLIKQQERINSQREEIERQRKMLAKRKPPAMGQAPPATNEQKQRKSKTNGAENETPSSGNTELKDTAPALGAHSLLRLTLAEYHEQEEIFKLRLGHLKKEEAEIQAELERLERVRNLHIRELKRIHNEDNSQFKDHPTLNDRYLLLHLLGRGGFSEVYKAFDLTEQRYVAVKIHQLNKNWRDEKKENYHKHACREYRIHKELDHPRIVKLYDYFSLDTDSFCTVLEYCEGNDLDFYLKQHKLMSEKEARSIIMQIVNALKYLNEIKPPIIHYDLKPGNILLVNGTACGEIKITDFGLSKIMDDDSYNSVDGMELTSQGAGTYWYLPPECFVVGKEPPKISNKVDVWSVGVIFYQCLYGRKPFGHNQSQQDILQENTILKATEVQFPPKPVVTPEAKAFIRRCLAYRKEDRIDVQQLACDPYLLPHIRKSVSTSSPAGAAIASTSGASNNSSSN
Chain of MAPK9 (human) (P45984 whole entry, looked up): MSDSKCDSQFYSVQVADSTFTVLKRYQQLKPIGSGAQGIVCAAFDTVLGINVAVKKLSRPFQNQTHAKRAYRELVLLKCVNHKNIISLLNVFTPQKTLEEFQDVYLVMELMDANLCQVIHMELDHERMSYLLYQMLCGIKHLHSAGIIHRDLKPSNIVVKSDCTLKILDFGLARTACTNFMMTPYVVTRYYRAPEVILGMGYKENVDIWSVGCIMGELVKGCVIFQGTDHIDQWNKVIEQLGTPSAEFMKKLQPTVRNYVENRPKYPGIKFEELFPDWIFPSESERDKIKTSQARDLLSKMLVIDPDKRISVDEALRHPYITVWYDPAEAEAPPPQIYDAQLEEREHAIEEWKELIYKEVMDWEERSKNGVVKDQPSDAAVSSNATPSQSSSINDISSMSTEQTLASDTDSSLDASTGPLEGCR
Chain of PRKCE (human) (Q02156 whole entry, looked up): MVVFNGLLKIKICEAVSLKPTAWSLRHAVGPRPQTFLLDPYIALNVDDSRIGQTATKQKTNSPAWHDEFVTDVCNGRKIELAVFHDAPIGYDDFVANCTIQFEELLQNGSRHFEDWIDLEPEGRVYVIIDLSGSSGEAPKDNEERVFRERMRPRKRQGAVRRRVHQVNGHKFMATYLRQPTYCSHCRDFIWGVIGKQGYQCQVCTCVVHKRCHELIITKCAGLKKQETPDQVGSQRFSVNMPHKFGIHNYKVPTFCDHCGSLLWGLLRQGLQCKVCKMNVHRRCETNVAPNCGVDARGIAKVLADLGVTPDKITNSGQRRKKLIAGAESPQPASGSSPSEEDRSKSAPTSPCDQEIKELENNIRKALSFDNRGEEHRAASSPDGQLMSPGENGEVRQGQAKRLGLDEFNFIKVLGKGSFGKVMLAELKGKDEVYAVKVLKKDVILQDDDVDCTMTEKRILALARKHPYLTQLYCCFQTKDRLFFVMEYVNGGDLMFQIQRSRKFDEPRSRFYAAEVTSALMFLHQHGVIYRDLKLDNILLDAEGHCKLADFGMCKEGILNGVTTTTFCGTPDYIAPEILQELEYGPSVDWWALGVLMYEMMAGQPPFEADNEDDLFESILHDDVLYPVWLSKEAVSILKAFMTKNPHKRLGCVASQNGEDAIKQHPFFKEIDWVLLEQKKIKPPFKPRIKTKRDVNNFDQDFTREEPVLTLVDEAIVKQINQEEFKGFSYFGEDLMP

One test deals with WEE1 (human) (UniProt P30291). In words: radiometric filter-binding kinase assay, Kinase HotSpot. The settings on record: compound 0.5 µM; ATP 10 µM.
With `Nc1ncnc2c1c(-c1ccc(Oc3ccccc3)cc1)cn2C1CCCC1`, the residual activity came to 77.8%.

On to `CCN(CC)CCNC(=O)c1c(C)[nH]c(/C=C2\C(=O)Nc3ccc(Cl)cc32)c1C`, for which the residual activity came to 94.8%.

With `CCOC(=O)c1c(C)[nH]c(/C=C2\C(=O)Nc3ccccc32)c1C`, the residual activity was found to be 91.2%.

The next test concerns the target MAPK9 (human) (UniProt P45984). Described as above. The settings on record: compound 0.5 µM; ATP 10 µM.
Regarding `Nc1ncnc2c1c(-c1ccc(Oc3ccccc3)cc1)cn2C1CCCC1`, the residual activity worked out at 100%.

For `CCN(CC)CCNC(=O)c1c(C)[nH]c(/C=C2\C(=O)Nc3ccc(Cl)cc32)c1C`, the residual activity was 109%.

On to `CCOC(=O)c1c(C)[nH]c(/C=C2\C(=O)Nc3ccccc32)c1C`, for which the residual activity came to 93.9%.

For a further test, the target named is FGFR3 (human) (UniProt P22607). The description is as above. The settings on record: compound 0.5 µM; ATP 10 µM.
Chain of FGFR3 (human) (P22607 whole entry, looked up): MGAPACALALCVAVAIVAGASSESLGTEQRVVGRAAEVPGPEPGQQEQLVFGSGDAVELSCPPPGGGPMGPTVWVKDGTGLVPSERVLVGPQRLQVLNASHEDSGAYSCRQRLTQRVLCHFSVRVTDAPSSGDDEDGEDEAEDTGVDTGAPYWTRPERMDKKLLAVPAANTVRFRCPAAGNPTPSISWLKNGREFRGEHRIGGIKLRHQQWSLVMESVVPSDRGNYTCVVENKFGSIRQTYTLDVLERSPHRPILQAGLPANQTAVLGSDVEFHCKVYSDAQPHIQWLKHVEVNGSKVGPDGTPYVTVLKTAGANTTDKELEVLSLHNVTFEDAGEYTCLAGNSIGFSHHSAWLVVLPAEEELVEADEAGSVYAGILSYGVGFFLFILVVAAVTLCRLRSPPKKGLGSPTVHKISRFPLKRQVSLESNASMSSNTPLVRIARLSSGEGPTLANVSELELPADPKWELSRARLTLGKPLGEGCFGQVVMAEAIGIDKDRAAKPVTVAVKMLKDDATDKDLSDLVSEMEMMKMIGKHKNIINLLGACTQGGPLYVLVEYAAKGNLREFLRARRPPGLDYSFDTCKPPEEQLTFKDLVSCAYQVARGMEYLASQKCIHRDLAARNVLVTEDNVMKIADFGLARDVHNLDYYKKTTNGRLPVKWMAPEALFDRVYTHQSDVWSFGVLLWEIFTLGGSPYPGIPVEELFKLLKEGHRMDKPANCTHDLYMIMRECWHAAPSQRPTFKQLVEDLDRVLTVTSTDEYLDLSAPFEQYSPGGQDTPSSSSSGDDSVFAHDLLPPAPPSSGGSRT
With `Nc1ncnc2c1c(-c1ccc(Oc3ccccc3)cc1)cn2C1CCCC1`, the residual activity was determined as 77.5%.

As for `CCN(CC)CCNC(=O)c1c(C)[nH]c(/C=C2\C(=O)Nc3ccc(Cl)cc32)c1C`, the residual activity was 12.3%.

With `CCOC(=O)c1c(C)[nH]c(/C=C2\C(=O)Nc3ccccc32)c1C`, the residual activity came out at 80.4%.

The next test has as its target MLTK (human) (UniProt Q9NYL2). Described as above. The settings on record: compound 0.5 µM; ATP 10 µM.
Regarding `Nc1ncnc2c1c(-c1ccc(Oc3ccccc3)cc1)cn2C1CCCC1`, the residual activity amounted to 70.3%.

Take `CCN(CC)CCNC(=O)c1c(C)[nH]c(/C=C2\C(=O)Nc3ccc(Cl)cc32)c1C`: the residual activity was 95.8%.

With `CCOC(=O)c1c(C)[nH]c(/C=C2\C(=O)Nc3ccccc32)c1C`, the residual activity turned out to be 92.7%.

In the next test the target is KIT (human) (UniProt P10721). The test is described as above. The settings on record: compound 0.5 µM; ATP 10 µM.
Chain of KIT (human) (P10721 whole entry, looked up): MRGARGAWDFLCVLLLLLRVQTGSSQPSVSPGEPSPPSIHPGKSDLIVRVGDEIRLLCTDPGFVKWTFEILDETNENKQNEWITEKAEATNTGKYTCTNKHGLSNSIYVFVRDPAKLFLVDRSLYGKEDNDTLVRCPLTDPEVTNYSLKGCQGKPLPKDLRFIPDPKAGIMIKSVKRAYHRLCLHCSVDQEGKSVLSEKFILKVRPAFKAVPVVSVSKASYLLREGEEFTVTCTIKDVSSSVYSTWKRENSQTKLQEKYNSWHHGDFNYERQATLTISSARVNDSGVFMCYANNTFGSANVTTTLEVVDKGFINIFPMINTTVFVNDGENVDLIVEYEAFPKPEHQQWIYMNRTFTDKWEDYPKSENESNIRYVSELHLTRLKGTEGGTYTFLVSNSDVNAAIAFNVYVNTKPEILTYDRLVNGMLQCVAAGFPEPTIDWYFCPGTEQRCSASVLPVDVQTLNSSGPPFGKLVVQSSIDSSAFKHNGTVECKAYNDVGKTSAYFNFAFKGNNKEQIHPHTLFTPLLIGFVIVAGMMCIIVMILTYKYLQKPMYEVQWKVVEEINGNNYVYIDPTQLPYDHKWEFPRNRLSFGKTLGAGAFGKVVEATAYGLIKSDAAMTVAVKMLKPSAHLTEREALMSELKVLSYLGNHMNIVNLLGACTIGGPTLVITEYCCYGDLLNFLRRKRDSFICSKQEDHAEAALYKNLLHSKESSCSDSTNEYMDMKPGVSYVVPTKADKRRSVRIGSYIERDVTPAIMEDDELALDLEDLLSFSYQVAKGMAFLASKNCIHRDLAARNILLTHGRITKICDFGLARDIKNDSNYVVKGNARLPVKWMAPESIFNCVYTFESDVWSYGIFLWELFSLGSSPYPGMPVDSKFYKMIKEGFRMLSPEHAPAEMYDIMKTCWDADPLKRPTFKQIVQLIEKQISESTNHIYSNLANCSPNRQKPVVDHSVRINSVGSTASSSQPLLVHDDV
Consider `Nc1ncnc2c1c(-c1ccc(Oc3ccccc3)cc1)cn2C1CCCC1`, for which the residual activity came out at 21.6%.

On to `CCN(CC)CCNC(=O)c1c(C)[nH]c(/C=C2\C(=O)Nc3ccc(Cl)cc32)c1C`, for which the residual activity came out at 28.7%.

Consider `CCOC(=O)c1c(C)[nH]c(/C=C2\C(=O)Nc3ccccc32)c1C`, for which the residual activity was 46.3%.

A further test has as its target MAPK14 (human) (UniProt Q16539). Described as above. The settings on record: compound 0.5 µM; ATP 10 µM.
With `Nc1ncnc2c1c(-c1ccc(Oc3ccccc3)cc1)cn2C1CCCC1`, the residual activity came out at 76.3%.

For the compound `CCN(CC)CCNC(=O)c1c(C)[nH]c(/C=C2\C(=O)Nc3ccc(Cl)cc32)c1C`, the residual activity is 103%.

`CCOC(=O)c1c(C)[nH]c(/C=C2\C(=O)Nc3ccccc32)c1C`: the residual activity was 134%.

The target of a further test is MELK (human) (UniProt Q14680). Described as above. The following applies: compound 0.5 µM; ATP 10 µM.
Regarding `Nc1ncnc2c1c(-c1ccc(Oc3ccccc3)cc1)cn2C1CCCC1`, the residual activity worked out at 101%.

As for `CCN(CC)CCNC(=O)c1c(C)[nH]c(/C=C2\C(=O)Nc3ccc(Cl)cc32)c1C`, the residual activity amounted to 16.7%.

`CCOC(=O)c1c(C)[nH]c(/C=C2\C(=O)Nc3ccccc32)c1C`: the residual activity is 87.4%.

In the next test the target is NTRK3 (human) (UniProt Q16288). The description is as above. The following applies: compound 0.5 µM; ATP 10 µM.
Chain of NTRK3 (human) (Q16288 whole entry, looked up): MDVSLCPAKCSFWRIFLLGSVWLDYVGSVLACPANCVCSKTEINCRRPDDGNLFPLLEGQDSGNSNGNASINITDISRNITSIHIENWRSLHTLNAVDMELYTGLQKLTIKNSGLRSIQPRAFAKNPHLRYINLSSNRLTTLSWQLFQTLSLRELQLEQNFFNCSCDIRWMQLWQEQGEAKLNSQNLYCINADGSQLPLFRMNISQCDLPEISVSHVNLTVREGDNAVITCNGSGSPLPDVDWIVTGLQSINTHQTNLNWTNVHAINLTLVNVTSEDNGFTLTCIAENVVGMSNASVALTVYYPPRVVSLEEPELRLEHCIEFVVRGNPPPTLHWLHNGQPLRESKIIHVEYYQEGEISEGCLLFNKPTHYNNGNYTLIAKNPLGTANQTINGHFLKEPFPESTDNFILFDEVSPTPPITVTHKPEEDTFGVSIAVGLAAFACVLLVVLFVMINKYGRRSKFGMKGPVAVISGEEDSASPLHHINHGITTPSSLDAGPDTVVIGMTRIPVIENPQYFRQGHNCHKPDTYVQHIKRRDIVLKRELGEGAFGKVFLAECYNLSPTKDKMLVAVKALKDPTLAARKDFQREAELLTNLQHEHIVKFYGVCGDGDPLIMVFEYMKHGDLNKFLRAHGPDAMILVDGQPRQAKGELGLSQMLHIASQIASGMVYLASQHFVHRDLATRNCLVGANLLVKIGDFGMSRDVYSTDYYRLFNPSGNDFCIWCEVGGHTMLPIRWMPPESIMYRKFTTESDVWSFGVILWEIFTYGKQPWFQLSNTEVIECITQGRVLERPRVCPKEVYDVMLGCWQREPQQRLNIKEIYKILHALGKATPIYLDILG
Turning to `Nc1ncnc2c1c(-c1ccc(Oc3ccccc3)cc1)cn2C1CCCC1`, the residual activity was 67.9%.

In the case of `CCN(CC)CCNC(=O)c1c(C)[nH]c(/C=C2\C(=O)Nc3ccc(Cl)cc32)c1C`, the residual activity was determined as 1.87%.

With `CCOC(=O)c1c(C)[nH]c(/C=C2\C(=O)Nc3ccccc32)c1C`, the residual activity was found to be 27.9%.

Another test addresses CLK4 (human) (UniProt Q9HAZ1). Described as above. The following applies: compound 0.5 µM; ATP 10 µM.
On to `Nc1ncnc2c1c(-c1ccc(Oc3ccccc3)cc1)cn2C1CCCC1`, for which the residual activity worked out at 98%.

Take `CCN(CC)CCNC(=O)c1c(C)[nH]c(/C=C2\C(=O)Nc3ccc(Cl)cc32)c1C`: the residual activity was determined as 16.8%.

For the compound `CCOC(=O)c1c(C)[nH]c(/C=C2\C(=O)Nc3ccccc32)c1C`, the residual activity came out at 94.3%.

The target of a further test is NTRK1 (human) (UniProt P04629). The test is described as above. The following applies: compound 0.5 µM; ATP 10 µM.
Regarding `Nc1ncnc2c1c(-c1ccc(Oc3ccccc3)cc1)cn2C1CCCC1`, the residual activity is 94.3%.

For `CCN(CC)CCNC(=O)c1c(C)[nH]c(/C=C2\C(=O)Nc3ccc(Cl)cc32)c1C`, the residual activity came out at 8.73%.

Turning to `CCOC(=O)c1c(C)[nH]c(/C=C2\C(=O)Nc3ccccc32)c1C`, the residual activity turned out to be 69.9%.

The target in a further test is SRMS (human) (UniProt Q9H3Y6). The test is described as above. The settings on record: compound 0.5 µM; ATP 10 µM.
On to `Nc1ncnc2c1c(-c1ccc(Oc3ccccc3)cc1)cn2C1CCCC1`, for which the residual activity came to 14.2%.

As for `CCN(CC)CCNC(=O)c1c(C)[nH]c(/C=C2\C(=O)Nc3ccc(Cl)cc32)c1C`, the residual activity stood at 102%.

Consider `CCOC(=O)c1c(C)[nH]c(/C=C2\C(=O)Nc3ccccc32)c1C`, for which the residual activity stood at 104%.

In a further test the target is CDK9 CCNT1 (human) (UniProt P50750+O60563). The test is described as above. The following applies: compound 0.5 µM; ATP 10 µM.
In the case of `Nc1ncnc2c1c(-c1ccc(Oc3ccccc3)cc1)cn2C1CCCC1`, the residual activity came to 104%.

As to `CCN(CC)CCNC(=O)c1c(C)[nH]c(/C=C2\C(=O)Nc3ccc(Cl)cc32)c1C`, the residual activity came to 58.8%.

`CCOC(=O)c1c(C)[nH]c(/C=C2\C(=O)Nc3ccccc32)c1C`: the residual activity is 94.7%.

In the next test the target is BRSK1 (human) (UniProt Q8TDC3). Described as above. The following applies: compound 0.5 µM; ATP 10 µM.
For `Nc1ncnc2c1c(-c1ccc(Oc3ccccc3)cc1)cn2C1CCCC1`, the residual activity was determined as 99.7%.

Take `CCN(CC)CCNC(=O)c1c(C)[nH]c(/C=C2\C(=O)Nc3ccc(Cl)cc32)c1C`: the residual activity is 36.5%.

Turning to `CCOC(=O)c1c(C)[nH]c(/C=C2\C(=O)Nc3ccccc32)c1C`, the residual activity was determined as 92.6%.

The target of a further test is RPS6KA6 KD1 KD2 (human) (UniProt Q9UK32). The test is described as above. The following applies: compound 0.5 µM; ATP 10 µM.
Turning to `Nc1ncnc2c1c(-c1ccc(Oc3ccccc3)cc1)cn2C1CCCC1`, the residual activity is 96.6%.

Take `CCN(CC)CCNC(=O)c1c(C)[nH]c(/C=C2\C(=O)Nc3ccc(Cl)cc32)c1C`: the residual activity amounted to 10.5%.

For the compound `CCOC(=O)c1c(C)[nH]c(/C=C2\C(=O)Nc3ccccc32)c1C`, the residual activity was 87.6%.

A further test has as its target TLK2 (human) (UniProt Q86UE8). Described as above. The settings on record: compound 0.5 µM; ATP 10 µM.
Take `Nc1ncnc2c1c(-c1ccc(Oc3ccccc3)cc1)cn2C1CCCC1`: the residual activity was 112%.

For the compound `CCN(CC)CCNC(=O)c1c(C)[nH]c(/C=C2\C(=O)Nc3ccc(Cl)cc32)c1C`, the residual activity was found to be 79.6%.

As for `CCOC(=O)c1c(C)[nH]c(/C=C2\C(=O)Nc3ccccc32)c1C`, the residual activity was 96.5%.

A further test deals with STK16 (human) (UniProt O75716). The test is described as above. The following applies: compound 0.5 µM; ATP 10 µM.
Take `Nc1ncnc2c1c(-c1ccc(Oc3ccccc3)cc1)cn2C1CCCC1`: the residual activity amounted to 90.7%.

Turning to `CCN(CC)CCNC(=O)c1c(C)[nH]c(/C=C2\C(=O)Nc3ccc(Cl)cc32)c1C`, the residual activity is 72.9%.

As to `CCOC(=O)c1c(C)[nH]c(/C=C2\C(=O)Nc3ccccc32)c1C`, the residual activity was 88.3%.

The target in a further test is MAPKAPK2 (human) (UniProt P49137). The description is as above. The following applies: compound 0.5 µM; ATP 10 µM.
Chain of MAPKAPK2 (human) (P49137 whole entry, looked up): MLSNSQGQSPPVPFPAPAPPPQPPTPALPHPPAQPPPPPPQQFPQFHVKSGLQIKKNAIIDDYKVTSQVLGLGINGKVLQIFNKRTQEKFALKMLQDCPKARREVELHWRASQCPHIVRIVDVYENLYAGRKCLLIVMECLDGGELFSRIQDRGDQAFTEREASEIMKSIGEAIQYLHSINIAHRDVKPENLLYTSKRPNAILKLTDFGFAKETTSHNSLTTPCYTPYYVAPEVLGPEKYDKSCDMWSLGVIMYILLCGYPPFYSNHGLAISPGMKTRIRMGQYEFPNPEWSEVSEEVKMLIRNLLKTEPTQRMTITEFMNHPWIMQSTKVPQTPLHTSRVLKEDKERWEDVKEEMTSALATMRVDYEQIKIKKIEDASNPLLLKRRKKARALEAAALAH
As to `Nc1ncnc2c1c(-c1ccc(Oc3ccccc3)cc1)cn2C1CCCC1`, the residual activity was 107%.

For the compound `CCN(CC)CCNC(=O)c1c(C)[nH]c(/C=C2\C(=O)Nc3ccc(Cl)cc32)c1C`, the residual activity was found to be 103%.

As for `CCOC(=O)c1c(C)[nH]c(/C=C2\C(=O)Nc3ccccc32)c1C`, the residual activity stood at 98.6%.

The target in a further test is EPHB2 (human) (UniProt P29323). The description is as above. The following applies: compound 0.5 µM; ATP 10 µM.
Consider `Nc1ncnc2c1c(-c1ccc(Oc3ccccc3)cc1)cn2C1CCCC1`, for which the residual activity was determined as 90.5%.

As to `CCN(CC)CCNC(=O)c1c(C)[nH]c(/C=C2\C(=O)Nc3ccc(Cl)cc32)c1C`, the residual activity was found to be 87.5%.

Take `CCOC(=O)c1c(C)[nH]c(/C=C2\C(=O)Nc3ccccc32)c1C`: the residual activity stood at 95.4%.

For another test, the target named is PTK6 (human) (UniProt Q13882). The description is as above. The following applies: compound 0.5 µM; ATP 10 µM.
In the case of `Nc1ncnc2c1c(-c1ccc(Oc3ccccc3)cc1)cn2C1CCCC1`, the residual activity was determined as 0.775%.

As for `CCN(CC)CCNC(=O)c1c(C)[nH]c(/C=C2\C(=O)Nc3ccc(Cl)cc32)c1C`, the residual activity is 51.3%.

In the case of `CCOC(=O)c1c(C)[nH]c(/C=C2\C(=O)Nc3ccccc32)c1C`, the residual activity was found to be 82.8%.

The next test has as its target PRKCE (human) (UniProt Q02156). The description is as above. The settings on record: compound 0.5 µM; ATP 10 µM.
`Nc1ncnc2c1c(-c1ccc(Oc3ccccc3)cc1)cn2C1CCCC1`: the residual activity came out at 96%.

With `CCN(CC)CCNC(=O)c1c(C)[nH]c(/C=C2\C(=O)Nc3ccc(Cl)cc32)c1C`, the residual activity was 102%.

For the compound `CCOC(=O)c1c(C)[nH]c(/C=C2\C(=O)Nc3ccccc32)c1C`, the residual activity was 98.2%.

In the next test the target is AXL (human) (UniProt P30530). The description is as above. The following applies: compound 0.5 µM; ATP 10 µM.
For `Nc1ncnc2c1c(-c1ccc(Oc3ccccc3)cc1)cn2C1CCCC1`, the residual activity came to 113%.

Consider `CCN(CC)CCNC(=O)c1c(C)[nH]c(/C=C2\C(=O)Nc3ccc(Cl)cc32)c1C`, for which the residual activity was found to be 25.2%.

For the compound `CCOC(=O)c1c(C)[nH]c(/C=C2\C(=O)Nc3ccccc32)c1C`, the residual activity is 88.9%.
